Entries after “also recorded” stand apart in the source; their conditions may differ. Where two headings read alike, the source gives them in different places.
Key:
RPE-1 = experiment: Resazurin assay, RPE-1 (Table 2); type: cell-based; details: Homo sapiens, resazurin assay (footnote a), read-out: IC50±SD RPE-1
Method: The resazurin reduction assay[34] was performed as described previously[38]. Briefly, cells were seeded onto a 96-well plate (2000 cells per well) in hexaplicate and the following day treated with the tested compounds (dissolved in DMSO as 50 mM stock) in a concentration range as indicated. After 24 h, 200 μl of culture medium of each well was exchanged for 100 μl of resazurin (stock 30 mg/ml; Sigma, St. Louis, MO) diluted 10 times in the culture medium, and the cells were incubated at 37 °C for 1–3 h. Reading of fluorescence was done using an Envision reader (PerkinElmer, Waltham, MA). Absolute values of fluorescence were related to the values of control/untreated cells. To estimate the cytotoxic concentration (half maximal inhibitory concentration, IC50), log-scale data were processed in GraphPad Prism software (La Jolla, CA) using nonlinear fit curve.

[1] = tested on: human breast cancer MDA-MB-231 cell line; experiment: Resazurin cytotoxicity assay, MDA-MB-231; type: cell-based; details: for cytotoxic effect in MDA-MB-231 (in words): 0, 5, 10, 20, 50 µM
Method: (§1) The cells were treated with the compounds at concentrations 0, 5, 10, 20, and 50 µM for 24 h, and the cytotoxicity was estimated by the resazurin assay.
To estimate IC50 of 6 and 14, MDA-MB-231 cells were treated with 1 (0, 2, 5, 10, 15, 20, 25, 30, 40, and 50 µM), 6 (0, 5, 10, 20, 25, 30, 40, 50, 70, and 100 µM), and 14 (0, 20, 40, 50, 60, 70, 80, 100, 150, and 200 µM) for 24 h.
(§2) The resazurin reduction assay[34] was performed as described previously. Briefly, cells were seeded onto a 96-well plate (2000 cells per well) in hexaplicate and the following day treated with the tested compounds (dissolved in DMSO as 50 mM stock) in a concentration range as indicated. After 24 h, 200 μl of culture medium of each well was exchanged for 100 μl of resazurin (stock 30 mg/ml; Sigma, St. Louis, MO) diluted 10 times in the culture medium, and the cells were incubated at 37 °C for 1–3 h. Reading of fluorescence was done using an Envision reader (PerkinElmer, Waltham, MA). Absolute values of fluorescence were related to the values of control/untreated cells. To estimate the cytotoxic concentration (half maximal inhibitory concentration, IC50), log-scale data were processed in GraphPad Prism software (La Jolla, CA) using nonlinear fit curve.

[2] = tested on: mouse lung TC-1 cancer cell line; experiment: MTT cytotoxicity assay, TC-1; type: cell-based; details: for IC50: Mus musculus, read-out: IC50±SD TC-1; for cytotoxic effect in TC-1 (in words): 0–50 µM, 24 h
Method: (§3) Cells were seeded at the density of 2000 cells per well (96-well F microplates; Nunc, Roskilde, Denmark). The following day, the tested compounds were added. In the next 24 h, MTT (3-(4,5-dimethylthiazol-2-yl)-2,5-diphenyltetrazolium bromide) was added. After 6 h, DMF (dimethylformamide) was added, and after additional 24 h, absorbance was measured at 560 nm by a microplate reader.

[3] = tested on: STAT3 Y705 phosphorylation (pY705); experiment: STAT3 pY705 immunoblotting, MDA-MB-231; type: cell-based, human; details: MDA-MB-231, micromolar concentration range, 4 h
Method: The cells were exposed to BP-1-102 (1), compounds 6 and 14 in a micromolar concentration range for 4 h, and then the levels of STAT3 pY705 and total STAT3 were probed by immunoblotting with specific antibodies. […] It can be concluded that both novel compounds 6 and 14 manifested inhibitory effects on receptor-mediated phosphorylation of Y705 of STAT3 in both human and mouse cell lines.
Cells were washed three times with PBS, harvested into 95 °C-heated Laemmli SDS sample lysis buffer (2% SDS, 50 mM Tris–Cl, 10% glycerol in double distilled H2O) and sonicated at 3 μm amplitude for 3 × 10 or 3 × 30 s with 10 or 30 s cooling intervals in a Soniprep 150 (MSE, London, UK) or Diagenode Bioruptor 300 (Diagenode, Liege, Belgium) for human and murine cell lines, respectively. Concentration of proteins was estimated by the Pierce^TM BCA Protein Assay (Thermo Scientific, Waltham, MA). DTT (100 mM) and 0.01% bromophenol blue were added to the lysates before separation by SDS-PAGE (10% gels were used). Equal protein amounts (40 or 35 μg for human or murine cell lines, respectively) were loaded into each well. Proteins were electrotransferred onto a nitrocellulose membrane (Amersham^TM Protran^TM 0.45 µm NC, GE Healthcare, Chalfont St Giles, UK) using wet transfer and detected by specific antibodies (at 4 °C overnight) combined with HRP-conjugated secondary antibodies. Peroxidase activity was detected by Amersham^TM ECL Western Blotting Detection Reagents (GE Healthcare, Chalfont St Giles, UK). GAPDH was used as a loading control.

[4] = tested on: prostate carcinoma DU-145; experiment: Resazurin cytotoxicity assay, DU-145; details: Homo sapiens, DU-145, read-out: IC50±SD DU-145
Method: (§4) Furthermore, the cytotoxicity of compound 6 was compared to BP-1-102 (1) in human glioblastoma cell lines U-87 and T98 in concentration range 0–80 µM for 24 h using the crystal violet assay.
as §2

[5] = tested on: mouse prostate TRAMP-C2 cancer cell line; experiment: MTT cytotoxicity assay, TRAMP-C2; type: cell-based; details: for IC50: Mus musculus, read-out: IC50±SD TRAMP-C2; for cytotoxic effect in TRAMP-C2 (in words): 0–50 µM, 24 h
Method: as §3

TRAMP-C2 cells = experiment: Annexin V / propidium iodide FACS, TRAMP-C2; type: cell-based, mouse; details: TRAMP-C2, 24 h
Method: (§6) Cells were harvested by centrifugation, resuspended in cold PBS and again centrifuged. Cell pellets were then resuspended in Annexin V Binding Buffer (ApoFlowEx FITC Kit, ED7044, Exbio, Vestec, Czech Republic), annexin V-APC and PI were added to the cell pellet and mixed. Cells were incubated in the dark at room temperature for 15 min. After the incubation, cells were centrifuged, resuspended in Annexin V Binding Buffer and analysed by flow cytometry. Five thousand cells per sample were measured by analysing annexin V and PI using a BD FACSVerse™ flow cytometer (BD Biosciences, Franklin Lakes, NJ). Data were analysed using FlowJo 10 software (FlowJo LLC, Ashland, OR), and the percentage of viable (annexin V-negative/PI-negative) cells relative to control was plotted.

MDA-MB-231 cells = experiment: Annexin V / propidium iodide FACS, MDA-MB-231; type: cell-based, human; details: MDA-MB-231, 0, 5, 10, 20, 50 µM, 24 h
Method: as §6

TC-1 cells = experiment: Annexin V / propidium iodide FACS, TC-1; details: TC-1, 24 h
Method: as §6

[6] = tested on: human breast adenocarcinoma MCF-7; experiment: Resazurin cytotoxicity assay, MCF-7; details: Homo sapiens, MCF7, read-out: IC50±SD MCF-7
Method: as §4, §2

[7] = tested on: human immortalised retinal pigment epithelium RPE-1; experiment: Crystal violet assay, RPE-1; details: 0–50 µM, 24 h
Method: as §1
(§5) To determine cell viability by crystal violet assay, cells were seeded in 96-well plates at densities of 3000 (RPE-1), 5000 (U373 and T98-G), and 8000 (U-87 MG) cells per well. The next day the cells were treated with the tested compounds in triplicate in a concentration range as indicated. After 24 h, the cells in each well were washed twice with 150 µl PBS and then stained in 30 µl 0.5% w/v crystal violet in 20% methanol for 15 min. Plates were washed three times with double distilled H2O and left to dry overnight. Crystal violet was solubilised with 75 µl 0.2% Triton X-100 (Sigma, St. Louis, MO) in PBS for 15 min. Absorbance of crystal violet was measured at 595 nm using a microplate reader (Multiskan EX, Thermo Electron Corporation, Waltham, MA). Absorbance of the treated samples was expressed as a percentage of absorbance of untreated cells.

human glioblastoma U373 = experiment: Crystal violet assay, U373; details: 0–50 µM, 24 h
Method: as §1, §5

[8] = tested on: human glioblastoma cell line T98; experiment: Crystal violet assay, T98; details: 0–80 µM, 24 h, compared to U-87 cells
Method: as §4, §5

[9] = Homo sapiens, MDA-MB-231, 24 h, resazurin assay, 24 h, read-out: IC50±SD MDA-MB-231

CN(CC(=O)N(Cc1ccc(C2CCCCC2)cc1)c1ccc(C(=O)O)c(O)c1)S(=O)(=O)c1c(F)c(F)c(F)c(F)c1F [BP-1-102 (1), 4-(N-(4-Cyclohexylbenzyl)-2-(2,3,4,5,6-pentafluoro-N-methylphenylsulfonamido)acetamido)-2-hydroxybenzoic acid, reference compound] was tested, and the IC50 (RPE-1) was 13.9 ± 0.2 µM, the IC50 ([1]; Homo sapiens, MDA-MB-231, 24 h, read-out: IC50±SD MDA-MB-231, resazurin assay, 24 h) was 15 µM and the IC50 ([1]; read-out: IC50±SD MDA-MB-231, resazurin assay, 24 h) was 15 ± 3.7 µM. The IC50 [2] was 7.8 ± 1.1 µM, the “inhibition of constitutive STAT3 Y705 phosphorylation” value [3] was “inhibited constitutive STAT3 phosphorylation” and the IC50 [4] was 18 ± 8.3 µM. The IC50 [5] was 7.9 ± 4.5 µM, the “cytotoxicity by annexin V/PI staining and FACS” value (TRAMP-C2 cells) was “confirmed” and the “cell death induction (annexin V/PI, FACS)” value (MDA-MB-231 cells) was “cell death induction was confirmed”. The “cytotoxicity by annexin V/PI staining and FACS” value (TC-1 cells) was “confirmed”.
In the case of Cc1ccc(S(=O)(=O)N(C)CC(=O)N(Cc2ccccc2)c2ccc(C(=O)O)c(O)c2)cc1 [Compound 3, 4-(N-(Benzyl)-2-(N-methyl-N-(p-toluenesulfonyl))acetamido)-2-hydroxybenzoic acid], the “cytotoxic effect in MDA-MB-231 (in words)” value ([1]; 24 h, resazurin assay) is reported as “lacking any significant cytotoxicity; also recorded: complete loss of cytotoxic activity”.
In the case of CN(CC(=O)N(Cc1ccccc1)c1ccc(C(=O)O)c(O)c1)S(=O)(=O)c1c(F)c(F)c(F)c(F)c1F [Compound 4, 4-(N-(Benzyl)-2-(2,3,4,5,6-pentafluoro-N-methylphenylsulfonamido)acetamido)-2-hydroxybenzoic acid], the IC50 (RPE-1) is reported as > 50 µM, the “cytotoxic effect in MDA-MB-231 (in words)” value ([1]; 24 h, resazurin assay) is reported as “mild-to-negligible cytotoxicity” and the IC50 [1, 9] is reported as > 50 µM. The IC50 [6] was > 50 µM and the IC50 [4] was > 50 µM.
With Cc1ccc(S(=O)(=O)N(C)CC(=O)N(Cc2ccc(C(C)(C)C)cc2)c2ccc(C(=O)O)c(O)c2)cc1 [Compound 5, 4-(N-(4-tert-Butylbenzyl)-2-(N-methyl-N-(p-toluenesulfonyl))acetamido)-2-hydroxybenzoic acid] the “cytotoxic effect in MDA-MB-231 (in words)” value ([1]; 24 h, resazurin assay) was “mild-to-negligible cytotoxicity; also recorded: complete loss of cytotoxic activity”.
In the case of CN(CC(=O)N(Cc1ccc(C(C)(C)C)cc1)c1ccc(C(=O)O)c(O)c1)S(=O)(=O)c1c(F)c(F)c(F)c(F)c1F [Compound 6, 4-(N-(4-tert-Butylbenzyl)-2-(2,3,4,5,6-pentafluoro-N-methylphenylsulfonamido)acetamido)-2-hydroxybenzoic acid], the IC50 (RPE-1) is reported as 24.5 ± 2.6 µM, the IC50 [1, 9] is reported as 26.2 µM and the “concentration from which the compound was cytotoxic” value ([1]; MDA-MB-231, 24 h, resazurin assay) is reported as 10 µM. The IC50 ([1]; resazurin assay, 24 h, read-out: IC50±SD MDA-MB-231) was 26.2 ± 5.6 µM, the “cytotoxic activity in RPE-1 (in words)” value [7] was “concentration-dependent cytotoxic activity” and the “cytotoxic activity in U373 (in words)” value (human glioblastoma U373) was “concentration-dependent cytotoxic activity”. For the same compound, the “cytotoxic effect in TC-1 (in words)” value [2] was “cytotoxic activity comparable to BP-1-102 (1)”, the IC50 [2] was 6.2 ± 1.1 µM and the “inhibition of constitutive STAT3 Y705 phosphorylation” value [3] was “inhibited constitutive STAT3 phosphorylation”. For the same compound, the IC50 [6] was 19.6 ± 3.6 µM, the “cytotoxicity in T98 (in words)” value [8] was “remarkable resistance” and the IC50 [4] was 34 ± 2.6 µM. For the same compound, the “cytotoxic effect in TRAMP-C2 (in words)” value ([5]; MTT assay) was “cytotoxic activity comparable to BP-1-102 (1)”, the IC50 ([5]; MTT assay) was 14.5 ± 13.4 µM and the “cytotoxicity by annexin V/PI staining and FACS” value (TRAMP-C2 cells) was “confirmed”. For the same compound, the “cell death induction (annexin V/PI, FACS)” value (MDA-MB-231 cells) was “cell death induction was confirmed” and the “cytotoxicity by annexin V/PI staining and FACS” value (TC-1 cells) was “confirmed”.
With COc1ccc(CN(C(=O)CN(C)S(=O)(=O)c2c(F)cc(F)cc2F)c2ccc(C(=O)O)c(O)c2)cc1 [Compound 7, 4-(N-(4-Methoxybenzyl)-2-(2,4,6-trifluoro-N-methylphenylsulfonamido)acetamido)-2-hydroxybenzoic acid] the “cytotoxic effect in MDA-MB-231 (in words)” value ([1]; 24 h, resazurin assay) was “lacking any significant cytotoxicity; also recorded: complete loss of cytotoxic activity”.
In the case of COc1ccc(CN(C(=O)CN(C)S(=O)(=O)c2c(F)c(F)c(F)c(F)c2F)c2ccc(C(=O)O)c(O)c2)cc1 [Compound 8, 4-(N-(4-Methoxybenzyl)-2-(2,3,4,5,6-pentafluoro-N-methylphenylsulfonamido)acetamido)-2-hydroxybenzoic acid], the “cytotoxic effect in MDA-MB-231 (in words)” value ([1]; 24 h, resazurin assay) is reported as “lacking any significant cytotoxicity; also recorded: no cytotoxic activity”, the “cytotoxic activity in U373 (in words)” value (human glioblastoma U373) is reported as “no cytotoxic activity” and the “cytotoxic effect in TC-1 (in words)” value [2] is reported as “mild cytotoxic effect; also recorded: mild cytotoxicity”. The “cytotoxic effect in TRAMP-C2 (in words)” value ([5]; MTT assay) was “mild cytotoxic effect; also recorded: mild cytotoxicity”.
In the case of CN(CC(=O)N(Cc1ccc(C(F)(F)F)cc1)c1ccc(C(=O)O)c(O)c1)S(=O)(=O)c1ccccc1 [Compound 9, 4-(N-(4-Trifluoromethylbenzyl)-2-(N-methylphenylsulfonyl)acetamido)-2-hydroxybenzoic acid], the “cytotoxic effect in MDA-MB-231 (in words)” value ([1]; 24 h, resazurin assay) is reported as “complete loss of cytotoxic activity”.
